The source of these data is patent US8163756B2 (priority 2004, dated 2012).

pIC50: −log10 of the molar value.

The first assay deals with B-Raf(V599E) kinase (Homo sapiens, UniProt P15056, V600E). Put plainly: B-Raf(V599E) kinase assay B1 (construct 1, MEK1 substrate, coupled spectrophotometric). Format: biochemical.
Chain of B-Raf(V599E) kinase (P15056 with tags, fused parts or gaps V600E): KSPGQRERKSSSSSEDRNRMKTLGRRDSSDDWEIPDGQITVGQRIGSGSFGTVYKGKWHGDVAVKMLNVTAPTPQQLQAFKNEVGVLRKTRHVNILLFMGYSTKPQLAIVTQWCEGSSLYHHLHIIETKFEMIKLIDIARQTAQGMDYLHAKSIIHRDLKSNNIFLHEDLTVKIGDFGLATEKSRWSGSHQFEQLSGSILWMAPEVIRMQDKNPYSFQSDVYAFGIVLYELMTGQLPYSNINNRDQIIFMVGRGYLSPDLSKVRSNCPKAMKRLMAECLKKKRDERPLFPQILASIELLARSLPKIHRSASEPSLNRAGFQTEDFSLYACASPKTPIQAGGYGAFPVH
Settings: not given
As to the method:
The test compounds were incubated with the reaction mixtureat 30° C. for 2 h. […] The reaction rate was calculated using the […] time frame. […] IC50 values were calculated from a series of percent inhibition values determined at a range of inhibitor concentrations using software routines as implemented in the GraphPad Prism software package.
With `CC(C)(C)c1cc(NC(=O)Nc2ccccc2)n(-c2cc(CC(N)=O)c3ccccc3c2)n1` [Example 88, 1-(1-(4-(2-amino-2-oxoethyl)naphthalen-2-yl)-3-t-butyl-1H-pyrazol-5-yl)-3-phenylurea], the pIC50 is 7.92.

Molecule `CC(C)(C)c1cc(NC(=O)Nc2ccc(F)cc2F)n(-c2ccc3c(c2)C(=O)NCC3)n1` [Example 311, 1-(3-t-butyl-1-(1-oxo-1,2,3,4-tetrahydroiso-quinolin-7-yl)-1H-pyrazol-5-yl)-3-(2,4-difluorophenyl)urea] gave a pIC50 of 7.49.

For the molecule `CC(C)(C)c1cc(NC(=O)Nc2ccc(Cl)cc2)n(-c2cccc(CN3C(=O)C(=O)N(c4ccccc4)C3=O)c2)n1` [Example 269, 1-(3-t-butyl-1-(3-[(2,4,5-trioxo-3-phenylimidazolidin-1-yl)methyl]phenyl}-1H-pyrazol-5-yl)-3-(4-chlorophenyl)urea], the pIC50 was 6.55.

`CC(C)(C)c1cc(NC(=O)Nc2cccc(Cl)c2Cl)n(-c2ccc(C(=N)NO)cc2)n1` [Example 260, 4-{3-t-butyl-5-[3-(2,3-dichlorophenyl)ureido]pyrazol-1-yl}-N-hydroxybenzamidine] had a pIC50 of 8.40.

For the molecule `CC(C)(C)c1cc(NC(=O)Nc2ccc(F)cc2)n(-c2cc(CO)c3ccccc3c2)n1` [Example 293], the pIC50 is 8.15.

`CCOC(=O)c1cc(-n2nc(C(C)(C)C)cc2NC(=O)Nc2ccc(F)cc2F)cc2ccccc12` [Example 289, ethyl 3-(3-t-butyl-5-(3-(2,4-difluorophenyl)ureido)-1H-pyrazol-1-yl)-1-naphthoate] had a pIC50 of 7.55.

In turn, `CC(C)(C)c1cc(NC(=O)Nc2cccc(Oc3ccccc3)c2)n(-c2cccc(CC(N)=O)c2)n1` [Example 433, 1-(1-(3-(2-amino-2-oxoethyl)phenyl)-3-t-butyl-1H-pyrazol-5-yl)-3-(3-phenoxyphenyl)urea] had a pIC50 of 8.29.

With `CC(C)(C)c1cc(NC(=O)Nc2ccc(F)c(F)c2)n(-c2cccc(CC(N)=O)c2)n1` [Example 436, 1-(1-(3-(2-amino-2-oxoethyl)phenyl)-3-t-butyl-1H-pyrazol-5-yl)-3-(3,4-difluorophenyl)urea], the pIC50 is 7.74.

On to `CC(C)(C)c1cc(NC(=O)Nc2ccccc2)n(-c2cc(CO)c3ccccc3c2)n1` [Example 290, 1-[3-t-butyl-1-(4-(hydroxymethyl)naphthalen-2-yl)-1H-pyrazol-5-yl]-3-phenylurea], for which the pIC50 was 7.92.

Consider `CC(C)(C)c1cc(NC(=O)NC2CCCCC2)n(-c2cccc(CC(N)=O)c2)n1` [Example 391, 1-{1-[3-(2-amino-2-oxoethyl)phenyl]-3-t-butyl-1H-pyrazol-5-yl}-3-cyclohexylurea], for which the pIC50 was 7.43.

On to `CC(C)(C)c1cc(NC(=O)Nc2ccc(F)cc2)n(-c2cccc(Cn3c(=O)[nH]n(-c4ccccc4)c3=O)c2)n1` [Example 272, 1-(3-t-butyl-1-{3-[(3,5-dioxo-1-phenyl-1,2,4-triazolidin-4-yl)methyl]phenyl}-1H-pyrazol-5-yl)-3-(4-fluorophenyl)urea], for which the pIC50 was 7.21.

In turn, `CC(C)(C)c1cc(NC(=O)Nc2ccccc2F)n(-c2cc(CC(N)=O)c3ccccc3c2)n1` [Example 89, 1-(1-(4-(2-amino-2-oxoethyl)naphthalen-2-yl)-3-t-butyl-1H-pyrazol-5-yl)-3-(2-fluorophenyl)urea] had a pIC50 of 8.26.

The same assay, now with this note: Method B1; read-out: B-Raf Data.
In the case of `NC(=O)Cc1cccc(-n2nc(-c3cccs3)cc2NC(=O)Nc2cccc(Cl)c2Cl)c1` [Example 445, 1-(1-(3-(2-amino-2-oxoethyl)phenyl)-3-(thiophen-2-yl)-1H-pyrazol-5-yl)-3-(2,3-dichlorophenyl)urea], the pIC50 was 6.08.

Take `O=C(O)Cc1cccc(-n2nc(C3CCCC3)cc2NC(=O)Nc2cccc(Cl)c2Cl)c1` [Example 368, 2-(3-(3-cyclopentyl-5-(3-(2,3-dichlorophenyl)-ureido)-1H-pyrazol-1-yl)phenyl)acetic acid]: the pIC50 is 8.21.
